Laboratory results from US12702702B2, “Application of Caerin 1.1/1.9 combined with anti-CD47 antibody in preparing drug for treating melanoma” (WNL BIOMED TECH PTY. LTD., priority 2022, dated 2026).
Ends that are not written are not given here.

Legend:
[1] = system: B16 cells; test: F1/F3 treatment of nude mice bearing tumor model; assay type: in vivo; conditions: 30 μg intratumoral for 7 days from DAY 3
[2] = system: B16 cells; test: MTT assay for B16 cell survival; assay type: cell-based; conditions: B16 cells cultured overnight with F1/F3 at 0-20 μg/mL, MTT kit
Method: (§1) • 1. An MTT assay was used to detect cell survival condition: 7×10^4 B16 cells per well were cultured overnight with F1/F3 at different concentrations (0, 6, 8, 10, 12, 14, 16, 18, 20 μg/mL) in 4 duplicate wells, and the cell survival condition was detected by using an MTT kit (a product number: C0009M) and an IC50 value was calculated by drawing. Latest results of two independent experiments were shown. • 2. Detection of cell apoptosis: it was divided into a test group and a control group, and the B16 cells were cultured with a complete medium (composed of 1640 basic medium+fetal bovine serum from South American+double antibody (mixed with penicillin and streptomycin at a ratio of 1:1) at a volume ratio of 90:9:1), where Caerin 1.1/Caerin 1.9 was added to the test group with a final concentration of 10 μg/mL, and P3 was added to the control group with a same final concentration of 10 μg/mL. The cells were cultured overnight in a 5% CO2 incubator at 37° C., and their apoptosis conditions were detected by an apoptosis kit (an Annexin V-EGFP apoptosis detection kit, with a product number: C1067M). II. Experimental Results: • 1. In FIG. 1, A represented the cell survival condition at different concentrations, and B represented a calculated survival rate. […] In FIG. 2, A was a cell apoptosis distribution diagram, and B was a statistical analysis result.

[3] = system: B16 cells; test: MDSC and macrophage proportions in B16 tumor tissue by flow cytometry; assay type: in vivo, C57BL/6 mice; conditions: 30 μg F1/F3 daily for 7 days, tumor DAY 13, versus PBS
Method: (§2) • 1. Experiment objects: 6 C57BL/6 mice were divided into 2 groups with 3 mice in each group. • 2. Experimental process: Each C57BL/6 mouse was subcutaneously inoculated with 4×10^5 B16 cells, and time of tumor bearing was recorded as DAY 0. The two groups were injected with 100 μL of PBS solution containing 30 μg of F1/F3 (i.e., Caerin 1.1/Caerin 1.9) respectively on DAY 3; and the negative control group was injected with 100 μL of PBS solution every day for consecutive 7 days. B16 tumor tissues were taken and treated into single cell suspensions on DAY 13 for flow staining and detected by using a flow cytometer. Selected antibodies were as follows: FITC-CD45.2, Percp-cy5.5-CD11b, APC-Ly6G, BV421-Ly6c, FVS510 dye, and PE-F4/80. A modeling method was the same as above, splenic organs of mice were taken and processed into single cell suspensions on DAY 13, m-MDSC was sorted by using a flow cytometer, and four groups were set up: a PBS group, a PBS+GMCSF group, an F(F1/F3) group, and an F(F1/F3)+GMCSF group. The sorted cells were counted, each group was provided with two multiple wells, with 100,000 cells each well, 10 ng/ml of GMCSF was added to each group, and after three days of stimulating culture, the cells were detected by using the flow cytometer. Selected antibodies were as follows: FITC-CD45.2, Percp-cy5.5-CD11b, APC-Ly6G, BV421-Ly6c, FVS510 dye, and PE-F4/80. • 3. […]

[4] = system: CD47; test: CD47 and SIRPα expression in B16 tumor tissue by flow cytometry; assay type: in vivo, C57BL/6 mice; conditions: DAY 13, flow cytometry
Method: (§3) • 1. Experiment objects: 21 C57BL/6 mice were divided into 3 groups with 7 mice in each group. • 2. Experiment method: A modeling method was the same as that in Experiment example 3, the experiment was divided into a PBS group, a P3 group and an F1/F3 group, tumor tissues were taken and treated into single cell suspensions on DAY 13 for flow staining and detected by using a flow cytometer, two experiments were carried out continuously, and flow antibodies were selected as follows: FITC-CD45.2, FVS510 dye, and BV421-CD47. • 3. Experimental results: This is a summary of results of two independent experiments, and the specific experimental results were shown in FIG. 9.

[5] = as above; assay type: in vivo, C57BL/6 mice; conditions: DAY 13, flow cytometry
Method: as §3

[6] = system: B16 cells; test: Flow cytometry of tumor-infiltrating immune cells after F1/F3 injection; assay type: in vivo, C57BL/6 mice; conditions: DAY 13, flow cytometry
Method: (§4) • 1. Experiment objects: 12 C57BL/6 mice were divided into 3 groups with 4 mice in each group. • 2. Experiment method: • 2.1 Detection of tumor weight: A. Each C57BL/6 mouse was subcutaneously inoculated with 4×10^5 B16 cells, and time of tumor bearing was recorded as DAY 0. On DAY 3, the three groups were respectively injected with 100 μL of PBS solution containing 30 μg of F1/F3 (i.e., Caerin 1.1/Caerin 1.9), 100 μL of PBS solution containing 30 μg of P3, and 100 μL of PBS solution for the negative control group every day, administered for 7 consecutive days; B. a modeling method was the same as above, there were 8 mouse in each group, which were killed at DAY 13, and the tumor was taken and weighed. • 2.2 Detection of cell activity: The experimental process was the same as that in 2.1, tumor tissues were taken and treated into single cell suspensions on DAY 13 for flow staining and detected by using a flow cytometer, and selected flow antibodies were as follows: FITC-CD45.2, APC-cy7-CD3e, Percp-cy5.5-CD4, PE-cy7-CD8a, APC-cy7-B220, PE-NK1.1, PE-F4/80, Percp-cy5.5-CD11b, and FVS510 dye. Changes of macrophage subtypes were detected, tumor tissues were taken and treated into single cell suspensions on DAY 13 for flow staining and detected by using the flow cytometer, and selected flow antibodies were as follows: FITC-CD45.2, PE-F4/80, Percp-cy5.5-CD11b, BV421-Ly6C, and FVS510 dye. • 3. In FIG. 3, A was the survival time of Caerin 1.1/Caerin 1.9 for combined treatment of melanoma-bearing mice, and B was weighted data of tumor size of each group.

[7] = system: B16 cells; test: In vivo B16 tumor model, intratumoral injection: survival time and tumor weight; set-up: species or system C57BL/6 mice; conditions: 30 μg injected daily for 7 days from DAY 3; alone
Method: as §4, with “Changes of macrophage subtypes were detected, tumor tissues were taken and treated into single cell suspensions on DAY 13 for flow staining and detected by using the flow cytometer, and selected flow antibodies were as follows: FITC-CD45.2, PE-F4/80, Percp-cy5.5-CD11b, BV421-Ly6C, and FVS510 dye. • 3. In FIG. 3, A was the survival time of Caerin 1.1/Caerin 1.9 for combined treatment of melanoma-bearing mice, and B was weighted data of tumor size of each group.” left out

[8] = system: m-MDSC; test: Sorted splenic m-MDSC, in vitro GMCSF stimulation culture; assay type: cell-based, C57BL/6 mice; conditions: 10 ng/ml GMCSF, three days culture, compared with the PBS group
Method: as §2

[9] = system: B16 cells; test: Apoptosis detection (Annexin V-EGFP kit) in B16 cells; assay type: cell-based; conditions: 10 μg/mL, cultured overnight, versus P3 control
Method: as §1

For “Caerin 1.1/Caerin 1.9: Caerin 1.1 and Caerin 1.9 polypeptides used together, mass ratio 1:1 (chain 1 GLLSVLGSVAKHVLPHVLPHVVPVIAEHL-NH2; chain 2 GLFGVLGSIAKHVLPHVVPVIAEKL-NH2; not fully specified; ends and bridges not checked)”, the “survival time of tumor-bearing nude mice” value [1] was “significantly prolonged”, the “IC50 (IC50 half lethal dose), cell survival” value [2] was 11.76 µg/mL and the “proportion of MDSC, m-MDSC and PMN-MDSC” value [3] was “tended to decrease”. The “proportion of tumor macrophages in CD45.2+ cells” value [3] was “rising trend”, the “expression of CD47 on tumor cells” value [4] was “increased obviously” and the “expression of SIRPα on macrophages” value [5] was “decreased”. For the same substance, the “number of tissue-resident macrophages for inhibiting tumor immunity” value [6] was “decreased”, the “expression of INFα receptors in macrophages” value ([6]; tumor tissue) was “increased” and the “number of CD8+T cells and CD4+T cells” value ([6]; tumor tissue) was “increased”. The “number of inflammatory macrophages for promoting tumor immunity” value ([6]; tumor tissue) was “increased”, the number of macrophages ([6]; tumor tissue) was “increased” and the “tumor growth in vivo (survival time, tumor weight)” value [7] was “effectively inhibit tumor growth”. The “macrophages after GMCSF stimulus differentiation of splenic m-MDSC” value [8] was “more macrophages” and the “apoptosis of B16 cells” value [9] was “significant apoptosis-inducing effect”.
